Measurements reported in patent publication US20250042937A1, “RAPID, GREEN, DISULFIDE BOND FORMATION IN WATER USING DICYANOCOBINAMIDE” (Syracuse University, priority 2023, published 2025).

Assays:
rat retinas = details: low doses (2-5%); cited from earlier work
oxytocin receptor = target: T1, oxytocin receptor (Homo sapiens, UniProt P30559); assay: screening at the oxytocin receptor (agonism) after Cbi oxidation; type: cell-based; details: peptide oxidized with Cbi; free or conjugated to B12
T1 sequence (P30559 1-389): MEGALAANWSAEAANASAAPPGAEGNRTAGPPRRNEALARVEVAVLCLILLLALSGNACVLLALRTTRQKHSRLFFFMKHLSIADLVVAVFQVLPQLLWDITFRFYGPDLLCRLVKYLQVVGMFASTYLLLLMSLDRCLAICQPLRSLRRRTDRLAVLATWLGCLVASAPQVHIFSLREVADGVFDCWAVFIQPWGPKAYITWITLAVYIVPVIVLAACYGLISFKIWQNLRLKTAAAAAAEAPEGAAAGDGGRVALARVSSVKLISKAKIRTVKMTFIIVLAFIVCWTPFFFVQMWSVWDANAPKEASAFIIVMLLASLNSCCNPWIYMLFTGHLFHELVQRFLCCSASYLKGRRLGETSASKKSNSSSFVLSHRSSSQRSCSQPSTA

| Compound | cytotoxicity (rat retinas) | Kd (oxytocin receptor) [nM] |
| --- | --- | --- |
| C[S+](C)[O-] [DMSO, dimethyl sulfoxide] | cytotoxic | – |
| CC[C@H](C)[C@@H]1NC(=O)[C@H](Cc2ccc(O)cc2)NC(=O)[C@@H](N)CSSC[C@@H](C(=O)N2CCC[C@H]2C(=O)N[C@@H](CCCCN=[N+]=[N-])C(=O)NCC(N)=O)NC(=O)[C@H](CC(N)=O)NC(=O)[C@H](CCC(N)=O)NC1=O [OT] | – | 4.39 |
| OT after conjugation to B12: OT peptide conjugated to vitamin B12 | – | 4.63 |
